The values that follow come from ChEMBL document CHEMBL1201862, “PubChem BioAssay data set” (2004).

Among the test systems are HCT-116; HOP-92; SN12C; SK-MEL-28; NCI-H226; U-251; OVCAR-3; SK-OV-3; KM12; LOX IMVI; SNB-75; UACC-257; HL-60; OVCAR-8; SF-268; K562; SF-295; IGROV-1; SK-MEL-2; HCC 2998.
Holding throughout (test): NCI anticancer screen, dose series, 48 h

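Five compound concentrations were applied to cells in 96-well plates for 48 hours; endpoints were derived by simple linear interpolation of the resulting dose-response curve. At the GI50, growth is halved.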 The source made the active and inactive calls. Cut-off read from the data, not from the text of the source: active = GI50 up to about 1.1 µM and inactive = higher. Bounds are passed on as bounds.

Consider `CC1C(=O)OC2CC[N+]3(CC(=O)c4ccc(Br)cc4)CC=C(COC(=O)C(C)(O)C1(C)O)C23` (centres undefined), for which the GI50 with HCT-116 was > 375 µM (inactive); in the experiment with HOP-92, > 299 µM (inactive); in the experiment with SN12C, > 375 µM (inactive); with SK-MEL-28, > 375 µM (inactive); with NCI-H226, > 375 µM (inactive); in the experiment on U-251 it was > 375 µM (inactive). Moreover, the GI50 in the experiment on OVCAR-3, with SK-OV-3, in the experiment with KM12, with LOX IMVI, in the experiment with SNB-75 and in the experiment with UACC-257 was > 375 µM (inactive) throughout. For the same compound, the GI50 in the experiment with HL-60 is 361 µM (inactive); with OVCAR-8, 37.5 µM (inactive); in the experiment on SF-268, > 375 µM (inactive); in the experiment with K562 it was > 375 µM (inactive); with SF-295, > 375 µM (inactive); in the experiment with IGROV-1, > 375 µM (inactive). The GI50 in the experiment with SK-MEL-2 and in the experiment on HCC 2998 was > 375 µM (inactive) throughout.

Turning to `O=C(N/C(=C\c1cccc([N+](=O)[O-])c1)c1nc2c(O)nc(S)nc2[nH]1)c1ccccc1`, the GI50 in the experiment on HCT-116, in the experiment with HOP-92, with SN12C, in the experiment with SK-MEL-28, in the experiment on NCI-H226 and in the experiment with U-251 was > 100 µM (inactive) throughout. Moreover, the GI50 in the experiment with OVCAR-3, in the experiment with SK-OV-3, with KM12, with LOX IMVI, with SNB-75 and in the experiment on UACC-257 was > 100 µM (inactive) in each case. Besides, the GI50 in the experiment on HL-60 was 69.3 µM (inactive); in the experiment with OVCAR-8, > 100 µM (inactive); in the experiment with SF-268 it was 48.2 µM (inactive); in the experiment with K562 it was > 100 µM (inactive); in the experiment with SF-295 it was > 100 µM (inactive); with IGROV-1 it was > 100 µM (inactive). The GI50 with SK-MEL-2 and in the experiment with HCC 2998 was > 100 µM (inactive) throughout.

As for `O=C1NC(=O)C2(CCc3ccc(N(CCCl)CCCl)cc32)N1` (centres undefined), the GI50 with HCT-116 is 14.1 µM (inactive); with HOP-92, 13.5 µM (inactive); in the experiment with SN12C, 5.37 µM (inactive); in the experiment on SK-MEL-28, 17.5 µM (inactive); with NCI-H226, 2.08 µM (inactive); in the experiment with U-251, 6.78 µM (inactive). The GI50 in the experiment with OVCAR-3 was 18.4 µM (inactive); in the experiment with SK-OV-3 it was 16.1 µM (inactive); in the experiment with KM12 it was 29.3 µM (inactive); in the experiment with LOX IMVI, 8.99 µM (inactive); with SNB-75, 7.48 µM (inactive); with UACC-257, 16.4 µM (inactive). The GI50 in the experiment on HL-60 is 1.65 µM (inactive); with OVCAR-8, 14.1 µM (inactive); with SF-268, 7.36 µM (inactive); with K562, 19.8 µM (inactive); in the experiment with SF-295, 7.5 µM (inactive); in the experiment on IGROV-1, 15.9 µM (inactive). In addition, the GI50 in the experiment with SK-MEL-2 is 21.7 µM (inactive); with HCC 2998 it was 15.9 µM (inactive).

On to `C[Si](C)(OCCS(=O)(=O)O)C1(Cc2cccc3ccccc23)S(=O)(=O)OCCOS1(=O)=O`, for which the GI50 in the experiment with HCT-116 is 18.5 µM (inactive); in the experiment on HOP-92 it was 11.2 µM (inactive); with SN12C it was 18.2 µM (inactive); in the experiment on SK-MEL-28, 17.1 µM (inactive); in the experiment with NCI-H226, 19.5 µM (inactive); in the experiment on U-251, 20.3 µM (inactive). Moreover, the GI50 is 12.6 µM (inactive) in the experiment with OVCAR-3; 15.6 µM (inactive) with SK-OV-3; 14.4 µM (inactive) in the experiment on KM12; 16.2 µM (inactive) in the experiment with LOX IMVI; 15.5 µM (inactive) in the experiment on SNB-75; 28.1 µM (inactive) in the experiment with UACC-257. For the same compound, the GI50 in the experiment on HL-60 is 8.26 µM (inactive); in the experiment with OVCAR-8 it was 19.5 µM (inactive); in the experiment on SF-268, 23.2 µM (inactive); in the experiment with K562, 26.4 µM (inactive); with SF-295, 20.2 µM (inactive); with IGROV-1, 16.9 µM (inactive). The GI50 is 18.9 µM (inactive) in the experiment with SK-MEL-2 and 16.5 µM (inactive) in the experiment with HCC 2998.

As to `CC1C(O)[C@@]2(OC[C@@]34C(=O)CC5(O)[C@H](CCC6Cc7nc8c(nc7C[C@]65C)CC5CC[C@@H]6C7=C[C@H]9O[C@@]%10(O[C@@](C)(CO)C[C@@H]%10O)C(C)[C@@]9(O)[C@]7(C)[C@@H](O)CC6[C@]5(C)C8)C3=CC[C@H]4C2C)OC1(C)C` (some centres undefined), the GI50 in the experiment on HCT-116 was 0.000776 µM (active); with HOP-92 it was < 0.000355 µM (active); in the experiment with SN12C, 0.628 µM (active); in the experiment with NCI-H226, > 3.55 µM (inactive); in the experiment with U-251, < 0.000355 µM (active); in the experiment with OVCAR-3, 1.26 µM (inactive). The GI50 with SK-OV-3 is 0.00226 µM (active); in the experiment with KM12 it was > 3.55 µM (inactive); in the experiment with LOX IMVI, < 0.000355 µM (active); in the experiment with SNB-75, < 0.000355 µM (active); with UACC-257, 0.00524 µM (active); with HL-60 it was < 0.000355 µM (active). The GI50 is 0.247 µM (active) in the experiment on OVCAR-8; 0.000659 µM (active) in the experiment with SF-268; < 0.000355 µM (active) in the experiment with K562; < 0.000355 µM (active) in the experiment with SF-295; 0.00262 µM (active) with IGROV-1; 0.000524 µM (active) with SK-MEL-2. The GI50 in the experiment with HCC 2998 is 0.548 µM (active).
